Laboratory results: ChEMBL document CHEMBL5653615 (J Biol Chem, 2013)

Tests used:
[1] = target: Glycogen synthase kinase-3 beta (Homo sapiens) (UniProt P49841); test: Inhibition of human GSK3b at 18.6 nM by HotSpot assay relative to control
[2] = target: Angiopoietin-1 receptor (Homo sapiens) (UniProt Q02763); test: Inhibition of human TEK at 18.6 nM by HotSpot assay relative to control
[3] = target: Mitogen-activated protein kinase kinase kinase 10 (Homo sapiens) (UniProt Q02779); test: Inhibition of human MAP3K10 at 1.82 nM by HotSpot assay relative to control
Mitogen-activated protein kinase kinase kinase 10 (Homo sapiens), sequence (Q02779 whole entry, looked up): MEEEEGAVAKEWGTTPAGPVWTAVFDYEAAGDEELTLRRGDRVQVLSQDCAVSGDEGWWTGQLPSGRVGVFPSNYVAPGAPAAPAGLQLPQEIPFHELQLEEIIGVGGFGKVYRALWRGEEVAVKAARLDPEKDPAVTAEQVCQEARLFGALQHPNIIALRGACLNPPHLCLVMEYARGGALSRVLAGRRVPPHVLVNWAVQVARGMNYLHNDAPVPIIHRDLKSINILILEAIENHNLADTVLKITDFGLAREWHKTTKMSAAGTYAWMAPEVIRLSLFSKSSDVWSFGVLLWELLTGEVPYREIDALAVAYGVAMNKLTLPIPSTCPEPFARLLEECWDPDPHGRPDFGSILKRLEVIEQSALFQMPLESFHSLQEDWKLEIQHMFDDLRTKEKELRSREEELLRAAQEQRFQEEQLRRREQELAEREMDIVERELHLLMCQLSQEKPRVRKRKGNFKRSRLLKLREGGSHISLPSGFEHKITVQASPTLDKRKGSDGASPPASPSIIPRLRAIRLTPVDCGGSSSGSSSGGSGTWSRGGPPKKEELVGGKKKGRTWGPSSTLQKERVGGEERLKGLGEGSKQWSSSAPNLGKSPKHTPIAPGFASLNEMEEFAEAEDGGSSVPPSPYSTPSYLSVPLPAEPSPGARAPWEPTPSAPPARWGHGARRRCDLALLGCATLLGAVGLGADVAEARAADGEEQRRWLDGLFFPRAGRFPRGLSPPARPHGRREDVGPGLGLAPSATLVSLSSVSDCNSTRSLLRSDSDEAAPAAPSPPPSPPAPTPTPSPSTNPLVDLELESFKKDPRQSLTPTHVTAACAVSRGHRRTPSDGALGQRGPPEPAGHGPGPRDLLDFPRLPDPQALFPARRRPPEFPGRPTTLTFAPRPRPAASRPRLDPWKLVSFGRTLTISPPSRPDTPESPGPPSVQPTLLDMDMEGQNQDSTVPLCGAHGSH

[4] = target: T1, Mitogen-activated protein kinase kinase kinase 5 (Homo sapiens) (UniProt Q99683); test: Inhibition of human ASK1 at 1.82 nM by HotSpot assay relative to control
T1 sequence (whole entry): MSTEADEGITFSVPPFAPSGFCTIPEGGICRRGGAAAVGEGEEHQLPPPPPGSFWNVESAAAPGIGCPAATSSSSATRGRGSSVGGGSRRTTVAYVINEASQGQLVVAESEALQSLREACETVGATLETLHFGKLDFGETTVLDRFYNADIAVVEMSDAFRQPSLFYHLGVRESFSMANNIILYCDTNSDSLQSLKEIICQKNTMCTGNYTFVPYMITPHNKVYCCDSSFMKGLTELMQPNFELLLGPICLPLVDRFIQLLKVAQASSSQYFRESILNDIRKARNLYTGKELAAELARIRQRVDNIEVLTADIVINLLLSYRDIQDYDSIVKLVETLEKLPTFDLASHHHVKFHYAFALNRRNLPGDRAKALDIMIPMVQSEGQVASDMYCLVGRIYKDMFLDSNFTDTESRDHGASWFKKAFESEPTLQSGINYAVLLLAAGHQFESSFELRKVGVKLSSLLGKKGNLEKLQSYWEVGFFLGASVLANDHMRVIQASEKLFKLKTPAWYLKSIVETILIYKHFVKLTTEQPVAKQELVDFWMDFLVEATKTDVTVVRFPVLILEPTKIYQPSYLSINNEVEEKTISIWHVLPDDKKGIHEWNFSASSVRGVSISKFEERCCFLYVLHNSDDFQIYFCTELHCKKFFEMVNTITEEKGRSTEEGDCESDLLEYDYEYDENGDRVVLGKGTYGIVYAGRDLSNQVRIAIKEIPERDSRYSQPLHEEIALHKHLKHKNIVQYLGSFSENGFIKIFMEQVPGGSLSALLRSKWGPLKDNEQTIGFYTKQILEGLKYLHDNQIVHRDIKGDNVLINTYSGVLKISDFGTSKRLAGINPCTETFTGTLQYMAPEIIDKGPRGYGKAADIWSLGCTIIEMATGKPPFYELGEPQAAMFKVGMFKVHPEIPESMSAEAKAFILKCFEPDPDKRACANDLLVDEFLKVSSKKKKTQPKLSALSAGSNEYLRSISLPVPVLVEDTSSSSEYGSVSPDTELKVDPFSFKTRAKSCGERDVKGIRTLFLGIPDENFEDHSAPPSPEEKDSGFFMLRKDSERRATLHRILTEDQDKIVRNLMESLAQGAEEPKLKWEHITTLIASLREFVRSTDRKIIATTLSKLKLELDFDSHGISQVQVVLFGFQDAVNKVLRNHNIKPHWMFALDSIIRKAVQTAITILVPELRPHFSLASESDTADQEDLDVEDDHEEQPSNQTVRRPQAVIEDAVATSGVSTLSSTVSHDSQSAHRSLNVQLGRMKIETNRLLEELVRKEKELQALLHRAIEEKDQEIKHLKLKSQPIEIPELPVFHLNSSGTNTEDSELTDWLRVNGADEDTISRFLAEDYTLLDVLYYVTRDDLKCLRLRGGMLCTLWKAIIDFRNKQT

[5] = target: T2, Mitogen-activated protein kinase 13 (Homo sapiens) (UniProt O15264); test: Inhibition of human MAPK13 at 1.82 nM by HotSpot assay relative to control
T2 sequence (whole entry): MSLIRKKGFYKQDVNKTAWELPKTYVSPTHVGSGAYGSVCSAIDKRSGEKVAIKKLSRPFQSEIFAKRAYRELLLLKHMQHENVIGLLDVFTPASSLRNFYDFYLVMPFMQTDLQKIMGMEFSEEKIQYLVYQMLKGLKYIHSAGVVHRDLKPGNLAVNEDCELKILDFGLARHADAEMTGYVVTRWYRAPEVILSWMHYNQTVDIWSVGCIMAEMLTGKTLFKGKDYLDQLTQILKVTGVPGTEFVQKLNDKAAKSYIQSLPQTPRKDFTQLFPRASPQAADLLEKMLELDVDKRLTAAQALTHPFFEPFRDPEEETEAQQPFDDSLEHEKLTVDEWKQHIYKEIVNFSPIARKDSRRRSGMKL

[6] = target: T3, Tyrosine-protein kinase ITK/TSK (Homo sapiens) (UniProt Q08881); test: Inhibition of human ITK at 1.82 nM by HotSpot assay relative to control
T3 sequence (whole entry): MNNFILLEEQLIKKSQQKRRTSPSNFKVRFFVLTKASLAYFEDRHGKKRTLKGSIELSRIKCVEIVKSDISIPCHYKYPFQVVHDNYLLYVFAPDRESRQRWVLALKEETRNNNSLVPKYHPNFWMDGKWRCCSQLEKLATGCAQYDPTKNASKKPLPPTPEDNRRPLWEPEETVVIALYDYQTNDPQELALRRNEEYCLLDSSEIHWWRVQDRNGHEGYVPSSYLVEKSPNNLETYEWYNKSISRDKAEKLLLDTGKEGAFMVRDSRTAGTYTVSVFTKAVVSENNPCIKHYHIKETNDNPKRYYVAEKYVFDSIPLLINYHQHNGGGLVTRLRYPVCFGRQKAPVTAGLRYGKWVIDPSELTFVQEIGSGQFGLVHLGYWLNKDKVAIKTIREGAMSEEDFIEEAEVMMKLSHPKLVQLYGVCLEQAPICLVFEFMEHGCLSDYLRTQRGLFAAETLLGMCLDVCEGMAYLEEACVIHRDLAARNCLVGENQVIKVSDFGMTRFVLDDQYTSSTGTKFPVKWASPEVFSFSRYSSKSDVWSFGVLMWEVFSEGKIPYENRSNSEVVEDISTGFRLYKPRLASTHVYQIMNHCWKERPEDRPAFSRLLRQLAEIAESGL

[7] = target: Activin receptor type-1-like (Homo sapiens) (UniProt P37023); test: Inhibition of human ALK1 at 1.82 nM by HotSpot assay relative to control
Activin receptor type-1-like (Homo sapiens), sequence (P37023 whole entry): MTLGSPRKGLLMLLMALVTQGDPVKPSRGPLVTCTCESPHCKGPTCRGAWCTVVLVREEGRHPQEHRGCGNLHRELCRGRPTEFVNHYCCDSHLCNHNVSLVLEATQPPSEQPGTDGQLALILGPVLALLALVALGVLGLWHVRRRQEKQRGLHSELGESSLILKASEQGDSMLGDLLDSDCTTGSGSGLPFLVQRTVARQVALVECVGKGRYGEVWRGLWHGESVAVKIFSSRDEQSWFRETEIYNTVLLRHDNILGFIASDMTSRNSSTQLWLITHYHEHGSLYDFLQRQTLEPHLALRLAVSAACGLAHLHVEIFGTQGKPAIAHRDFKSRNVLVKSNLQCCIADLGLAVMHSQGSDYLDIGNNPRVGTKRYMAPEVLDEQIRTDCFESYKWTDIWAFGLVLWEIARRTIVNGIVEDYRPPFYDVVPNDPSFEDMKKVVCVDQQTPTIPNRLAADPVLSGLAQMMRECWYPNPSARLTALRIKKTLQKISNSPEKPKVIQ

[8] = target: SRSF protein kinase 2 (Homo sapiens) (UniProt P78362); test: Inhibition of human SRPK2 at 1.82 nM by HotSpot assay relative to control
SRSF protein kinase 2 (Homo sapiens), sequence (P78362 whole entry, looked up): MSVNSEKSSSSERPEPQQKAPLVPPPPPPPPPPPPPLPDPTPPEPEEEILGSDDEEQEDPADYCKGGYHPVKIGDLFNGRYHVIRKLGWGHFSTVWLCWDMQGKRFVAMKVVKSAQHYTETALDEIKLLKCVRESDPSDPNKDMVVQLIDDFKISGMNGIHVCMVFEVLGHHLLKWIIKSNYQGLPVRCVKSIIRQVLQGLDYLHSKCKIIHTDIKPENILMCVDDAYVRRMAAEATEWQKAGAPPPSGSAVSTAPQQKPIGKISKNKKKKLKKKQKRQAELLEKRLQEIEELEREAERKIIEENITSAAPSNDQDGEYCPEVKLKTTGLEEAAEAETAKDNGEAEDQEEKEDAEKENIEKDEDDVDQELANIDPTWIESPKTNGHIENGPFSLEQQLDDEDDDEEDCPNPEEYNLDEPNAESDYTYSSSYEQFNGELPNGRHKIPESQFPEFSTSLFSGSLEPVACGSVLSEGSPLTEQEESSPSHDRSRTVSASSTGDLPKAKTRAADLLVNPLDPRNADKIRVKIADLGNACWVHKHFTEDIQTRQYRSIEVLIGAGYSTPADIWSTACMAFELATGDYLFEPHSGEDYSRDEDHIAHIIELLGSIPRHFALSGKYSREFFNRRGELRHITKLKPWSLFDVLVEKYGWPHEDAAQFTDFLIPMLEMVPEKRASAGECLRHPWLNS

Angiopoietin-1 receptor (Homo sapiens), sequence (Q02763 whole entry): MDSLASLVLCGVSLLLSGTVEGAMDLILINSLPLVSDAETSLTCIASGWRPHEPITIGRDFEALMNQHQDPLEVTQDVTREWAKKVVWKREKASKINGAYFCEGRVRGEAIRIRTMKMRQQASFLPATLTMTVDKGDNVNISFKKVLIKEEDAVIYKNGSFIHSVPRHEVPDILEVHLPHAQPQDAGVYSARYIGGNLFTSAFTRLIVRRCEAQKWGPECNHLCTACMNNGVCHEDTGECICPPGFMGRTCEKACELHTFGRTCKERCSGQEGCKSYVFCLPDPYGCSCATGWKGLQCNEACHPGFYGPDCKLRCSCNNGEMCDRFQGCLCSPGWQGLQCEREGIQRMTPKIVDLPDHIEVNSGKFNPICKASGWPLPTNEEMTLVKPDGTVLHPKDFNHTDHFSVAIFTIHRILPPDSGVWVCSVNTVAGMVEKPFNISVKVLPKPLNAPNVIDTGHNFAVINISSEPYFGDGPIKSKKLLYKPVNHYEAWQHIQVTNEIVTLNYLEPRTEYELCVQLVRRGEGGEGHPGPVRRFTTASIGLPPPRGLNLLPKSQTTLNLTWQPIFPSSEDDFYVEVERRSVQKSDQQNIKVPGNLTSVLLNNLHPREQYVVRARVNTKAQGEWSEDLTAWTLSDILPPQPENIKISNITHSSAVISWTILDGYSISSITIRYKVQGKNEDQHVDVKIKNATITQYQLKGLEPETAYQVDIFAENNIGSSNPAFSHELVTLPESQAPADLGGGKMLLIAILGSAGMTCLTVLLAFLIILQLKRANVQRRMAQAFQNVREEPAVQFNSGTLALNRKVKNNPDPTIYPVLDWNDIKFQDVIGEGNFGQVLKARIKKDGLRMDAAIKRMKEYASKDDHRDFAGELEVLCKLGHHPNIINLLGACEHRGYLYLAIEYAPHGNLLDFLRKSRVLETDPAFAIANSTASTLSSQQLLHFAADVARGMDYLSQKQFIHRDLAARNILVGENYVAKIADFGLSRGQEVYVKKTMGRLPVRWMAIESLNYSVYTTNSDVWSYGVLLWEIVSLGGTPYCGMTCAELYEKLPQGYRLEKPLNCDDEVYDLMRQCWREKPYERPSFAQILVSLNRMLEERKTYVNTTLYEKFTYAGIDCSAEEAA
Glycogen synthase kinase-3 beta (Homo sapiens), sequence (P49841 whole entry, looked up): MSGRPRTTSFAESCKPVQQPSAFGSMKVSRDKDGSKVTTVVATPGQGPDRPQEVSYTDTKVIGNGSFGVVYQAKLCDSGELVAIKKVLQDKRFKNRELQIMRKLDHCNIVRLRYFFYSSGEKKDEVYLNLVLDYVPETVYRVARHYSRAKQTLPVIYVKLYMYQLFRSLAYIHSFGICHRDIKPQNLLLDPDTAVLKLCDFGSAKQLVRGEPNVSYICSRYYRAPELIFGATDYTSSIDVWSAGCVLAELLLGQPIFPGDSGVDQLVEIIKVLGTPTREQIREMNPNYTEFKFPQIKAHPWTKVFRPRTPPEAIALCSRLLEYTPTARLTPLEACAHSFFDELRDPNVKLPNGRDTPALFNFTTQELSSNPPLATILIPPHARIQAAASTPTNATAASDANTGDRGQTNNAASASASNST

Structure (SMILES) | inhibition [1] [%] | inhibition [2] [%] | inhibition [3] [%] | inhibition [4] [%] | inhibition [5] [%] | inhibition [6] [%] | inhibition [7] [%] | inhibition [8] [%]
C[C@]1(O)C[C@@H](c2nc(-c3ccc4ccc(-c5ccccc5)nc4c3)c3c(N)nccn32)C1 | 67.1 | 2.86 |  |  |  |  |  | 
C[C@@]1(C(=O)Nc2ccc(F)nc2)CCCN1c1nc(Nc2cc(C3CC3)n[nH]2)c2cccn2n1 |  |  | -1.81 | -3.08 | -4.13 | -7.19 | 0.3 | -2.03
